ChEMBL document CHEMBL3885861, “Open TG-GATES”

Species on record: Rattus norvegicus
Experiment: Open TG-GATES - Regimen: Daily Repeat
Format: toxicity, organism-based, Sprague-Dawley
Parameters: regimen Daily Repeat, gender Male, age 6 weeks
Conditions: in vivo, po, 30 mg/kg, route gavage, dose level Middle; for APTT / Bas / Eos / Fbg / Hb / Ht / Lym / MCH / MCHC / MCV / Mono / Neu / PT / Plat / RBC / Ret / WBC: tissue Blood; for KIDNEY_L / KIDNEY_R / KIDNEY_TOTAL: tissue Kidney; for LIVER: tissue Liver; for A/G / ALP / ALT / AST / BUN / CRE / Ca / Cl / DBIL / GLC / IP / K / LDH / Na / PL / RALB / TBIL / TC / TG / TP / gamma-GTP: tissue Plasma

CC1=C(/C=C/C(C)=C/C=C/C(C)=C/CO)C(C)(C)CCC1 [RETINOL]
TERMINAL_BW (72 h, time 3 day): 230.8 g | APTT (72 h, time 3 day): 23.3 s | Bas (72 h, time 3 day): 0% | Eos (72 h, time 3 day): 0.8% | Fbg (72 h, time 3 day): 299 mg/dL | Hb (72 h, time 3 day): 13.5 g/dL | Ht (72 h, time 3 day): 39% | Lym (72 h, time 3 day): 79.4% | MCH (72 h, time 3 day): 21.5 pg | MCHC (72 h, time 3 day): 34.7% | MCV (72 h, time 3 day): 62 fL | Mono (72 h, time 3 day): 2.4% | Neu (72 h, time 3 day): 16.6% | PT (72 h, time 3 day): 16.8 s | Plat (72 h, time 3 day): 120.5 x10_4/uL | RBC (72 h, time 3 day): 629.4 x10_4/ul | Ret (72 h, time 3 day): 5.6% | WBC (72 h, time 3 day): 103.8 x10_2/uL | KIDNEY_L (72 h, time 3 day): 1 g | KIDNEY_R (72 h, time 3 day): 0.9 g | KIDNEY_TOTAL (72 h, time 3 day): 1.9 g | LIVER (72 h, time 3 day): 11.2 g | A/G (72 h, time 3 day): 1.3 | ALP (72 h, time 3 day): 2028 IU/L | ALT (72 h, time 3 day): 48.8 IU/L | AST (72 h, time 3 day): 78.6 IU/L | BUN (72 h, time 3 day): 19.4 mg/dL | CRE (72 h, time 3 day): 0.2 mg/dL | Ca (72 h, time 3 day): 11 mg/dL | Cl (72 h, time 3 day): 106.8 meq/L | DBIL (72 h, time 3 day): 0.002 mg/dL | GLC (72 h, time 3 day): 188.6 mg/dL | IP (72 h, time 3 day): 6.4 mg/dL | K (72 h, time 3 day): 4.3 meq/L | LDH (72 h, time 3 day): 235.6 IU/L | Na (72 h, time 3 day): 141.2 meq/L | PL (72 h, time 3 day): 166.4 mg/dL | RALB (72 h, time 3 day): 3.2 g/dL | TBIL (72 h, time 3 day): 0.012 mg/dL | TC (72 h, time 3 day): 78.8 mg/dL | TG (72 h, time 3 day): 150 mg/dL | TP (72 h, time 3 day): 5.7 g/dL | gamma-GTP (72 h, time 3 day): 1.6 IU/L | TERMINAL_BW ([…], time 7 day): 256.2 g | TERMINAL_BW ([…], time 14 day): 297 g | TERMINAL_BW ([…], time 28 day): 360.9 g | APTT ([…], time 7 day): 26.4 s | Bas ([…], time 7 day): 0% | Eos ([…], time 7 day): 0.8% | Fbg ([…], time 7 day): 275.2 mg/dL | Hb ([…], time 7 day): 13.7 g/dL | Ht ([…], time 7 day): 39.4% | Lym ([…], time 7 day): 83.6% | MCH ([…], time 7 day): 20.8 pg | MCHC ([…], time 7 day): 34.8% | MCV ([…], time 7 day): 59.8 fL | Mono ([…], time 7 day): 1.6% | Neu ([…], time 7 day): 13.2% | PT ([…], time 7 day): 15.8 s | Plat ([…], time 7 day): 125.2 x10_4/uL | RBC ([…], time 7 day): 660.2 x10_4/ul | Ret ([…], time 7 day): 4.6% | WBC ([…], time 7 day): 81.8 x10_2/uL | APTT ([…], time 14 day): 28.5 s | Bas ([…], time 14 day): 0% | Eos ([…], time 14 day): 0.8% | Fbg ([…], time 14 day): 290.2 mg/dL | Hb ([…], time 14 day): 13.4 g/dL | Ht ([…], time 14 day): 38.1% | Lym ([…], time 14 day): 76.2% | MCH ([…], time 14 day): 20 pg | MCHC ([…], time 14 day): 35.1% | MCV ([…], time 14 day): 56.9 fL | Mono ([…], time 14 day): 2.6% | Neu ([…], time 14 day): 19.8% | PT ([…], time 14 day): 15.9 s | Plat ([…], time 14 day): 103.9 x10_4/uL | RBC ([…], time 14 day): 671.4 x10_4/ul | Ret ([…], time 14 day): 3.9% | WBC ([…], time 14 day): 101 x10_2/uL | APTT ([…], time 28 day): 37.3 s | Bas ([…], time 28 day): 0% | Eos ([…], time 28 day): 0.8% | Fbg ([…], time 28 day): 283 mg/dL | Hb ([…], time 28 day): 13.8 g/dL | Ht ([…], time 28 day): 38.6% | Lym ([…], time 28 day): 76.4% | MCH ([…], time 28 day): 19.6 pg | MCHC ([…], time 28 day): 35.7% | MCV ([…], time 28 day): 54.9 fL | Mono ([…], time 28 day): 2% | Neu ([…], time 28 day): 19.8% | PT ([…], time 28 day): 17.3 s | Plat ([…], time 28 day): 116.5 x10_4/uL | RBC ([…], time 28 day): 704 x10_4/ul | Ret ([…], time 28 day): 2.7% | WBC ([…], time 28 day): 133 x10_2/uL | KIDNEY_L ([…], time 7 day): 1.1 g | KIDNEY_R ([…], time 7 day): 1.1 g | KIDNEY_TOTAL ([…], time 7 day): 2.2 g | KIDNEY_L ([…], time 14 day): 1.2 g | KIDNEY_R ([…], time 14 day): 1.2 g | KIDNEY_TOTAL ([…], time 14 day): 2.4 g | KIDNEY_L ([…], time 28 day): 1.4 g | KIDNEY_R ([…], time 28 day): 1.4 g | KIDNEY_TOTAL ([…], time 28 day): 2.8 g | LIVER ([…], time 7 day): 11.7 g | LIVER ([…], time 14 day): 14.1 g | LIVER ([…], time 28 day): 15.1 g | A/G ([…], time 7 day): 1.2 | ALP ([…], time 7 day): 1900.8 IU/L | ALT ([…], time 7 day): 48.4 IU/L | AST ([…], time 7 day): 82 IU/L | BUN ([…], time 7 day): 17.2 mg/dL | CRE ([…], time 7 day): 0.2 mg/dL | Ca ([…], time 7 day): 10.5 mg/dL | Cl ([…], time 7 day): 108.8 meq/L | DBIL ([…], time 7 day): 0.002 mg/dL | GLC ([…], time 7 day): 191 mg/dL | IP ([…], time 7 day): 6.6 mg/dL | K ([…], time 7 day): 4.4 meq/L | LDH ([…], time 7 day): 208.2 IU/L | Na ([…], time 7 day): 143 meq/L | PL ([…], time 7 day): 148.6 mg/dL | RALB ([…], time 7 day): 3 g/dL | TBIL ([…], time 7 day): 0.002 mg/dL | TC ([…], time 7 day): 71.4 mg/dL | TG ([…], time 7 day): 175.2 mg/dL | TP ([…], time 7 day): 5.5 g/dL | gamma-GTP ([…], time 7 day): 1 IU/L | A/G ([…], time 14 day): 1.2 | ALP ([…], time 14 day): 1990.8 IU/L | ALT ([…], time 14 day): 49.4 IU/L | AST ([…], time 14 day): 83.8 IU/L | BUN ([…], time 14 day): 17.4 mg/dL | CRE ([…], time 14 day): 0.2 mg/dL | Ca ([…], time 14 day): 10.5 mg/dL | Cl ([…], time 14 day): 108.2 meq/L | DBIL ([…], time 14 day): 0 mg/dL | GLC ([…], time 14 day): 198.6 mg/dL | IP ([…], time 14 day): 5.9 mg/dL | K ([…], time 14 day): 4.2 meq/L | LDH ([…], time 14 day): 269 IU/L | Na ([…], time 14 day): 142.8 meq/L | PL ([…], time 14 day): 172.6 mg/dL | RALB ([…], time 14 day): 3 g/dL | TBIL ([…], time 14 day): 0.002 mg/dL | TC ([…], time 14 day): 74.4 mg/dL | TG ([…], time 14 day): 312 mg/dL | TP ([…], time 14 day): 5.6 g/dL | gamma-GTP ([…], time 14 day): 1.2 IU/L | A/G ([…], time 28 day): 1 | ALP ([…], time 28 day): 1673.8 IU/L | ALT ([…], time 28 day): 56.6 IU/L | AST ([…], time 28 day): 79.8 IU/L | BUN ([…], time 28 day): 16.2 mg/dL | CRE ([…], time 28 day): 0.2 mg/dL | Ca ([…], time 28 day): 10.1 mg/dL | Cl ([…], time 28 day): 108 meq/L | DBIL ([…], time 28 day): 0 mg/dL | GLC ([…], time 28 day): 183.4 mg/dL | IP ([…], time 28 day): 6.2 mg/dL | K ([…], time 28 day): 4.2 meq/L | LDH ([…], time 28 day): 138.4 IU/L | Na ([…], time 28 day): 141 meq/L | PL ([…], time 28 day): 145 mg/dL | RALB ([…], time 28 day): 2.9 g/dL | TBIL ([…], time 28 day): 0.026 mg/dL | TC ([…], time 28 day): 66.6 mg/dL | TG ([…], time 28 day): 203.4 mg/dL | TP ([…], time 28 day): 5.7 g/dL | gamma-GTP ([…], time 28 day): 1.2 IU/L
